Assay results taken from article PMC11990924, “Inhibition of Tyrosinase and Melanogenesis by Carboxylic Acids: Mechanistic Insights and Safety Evaluation” (Molecules, 2025).

Legend:
[1] = Cell viability of B16-F10 by MTT; format: cell-based; details: mouse, B16-F10 cells, 6 mM
Protocol: B16-F10 cells were seeded in 96-well plates at a density of 1 × 10^5 cells/mL and cultured at 37 °C with 5% CO2 for 24 h. Subsequently, various concentrations of carboxylic acids were added, and the cells were further incubated for 24 h. Then, 6 μL of MTT (5 mg/mL) was added, and the cells were cultured for an additional 4 h. Afterward, 200 μL of DMSO was added to dissolve the formazan crystals by gently pipetting up and down. The absorbance at 570 nm (OD570) was measured using a microplate reader (Infinite 200Pro, Tecan), with deionized water serving as the control. The cell viability was calculated with Equation (2): (2) [(OD570 of sample)/OD570 of control]×100%

tyrosinase = target: T1, tyrosinase (Agaricus bisporus, UniProt C7FF04); test: Fluorescence spectra analysis of tyrosinase; format: binding, mushroom; details: 6 mM; excitation 280 nm
T1 construct: purchased Sigma-Aldrich
T1 sequence (C7FF04 1-392 limits assumed): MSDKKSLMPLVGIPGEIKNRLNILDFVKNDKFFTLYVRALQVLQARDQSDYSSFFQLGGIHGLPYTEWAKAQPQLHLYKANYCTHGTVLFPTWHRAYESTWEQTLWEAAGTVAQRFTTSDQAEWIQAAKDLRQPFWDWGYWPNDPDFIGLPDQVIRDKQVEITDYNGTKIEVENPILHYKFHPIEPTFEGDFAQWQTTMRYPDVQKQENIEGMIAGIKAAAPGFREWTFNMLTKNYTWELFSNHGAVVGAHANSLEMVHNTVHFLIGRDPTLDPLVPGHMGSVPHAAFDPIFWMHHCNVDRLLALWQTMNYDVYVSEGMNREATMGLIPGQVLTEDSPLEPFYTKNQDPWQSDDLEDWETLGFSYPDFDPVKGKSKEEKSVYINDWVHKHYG
Protocol: Carboxylic acid solutions at various concentrations were mixed with PBS buffer and tyrosinase (final concentration of 60 U/mL) and then transferred to a black 96-well plate. Fluorescence analysis was conducted using a microplate reader (Infinite 200Pro, Tecan).

Row | Structure (SMILES) | viability at 24 h, 6 mM [1] [%] | decrease of tyrosinase fluorescence intensity (tyrosinase) [%]
1 | O=C(O)C(O)Cc1ccccc1 (stereo not shown) [3-phenyllactic acid] | > 90 | 29.3
2 | O=C(O)CC(O)C(=O)O (stereo not shown) [malic acid] | > 90 | 29.0
